This is an account of results in patent US10233192B2, “Derivatives of uncialamycin, methods of synthesis and their use as antitumor agents” (priority 2013, dated 2019).

Data set [1] concerns ADR multi-drug resistant breast cancer cell line. Briefly: ATP luminescence (CellTiter-Glo) cell viability assay, ADR. It counts as cell-based. The note with it: 72 h, read-out: EC50 (nM) ADR. On the procedure:
(§1) An ATP luminescence assay was used, the procedure being as follows: Cells were seeded at 1×10^3 cells/well in 96-well plates for 3 h for ATP CellTiter^Glo™ assays, respectively. Serial dilutions (1:3) of compounds were added to the wells. Plates were allowed to incubate for 72 h. A CellTiter^Glo™ cell viability kit from Promega was used to measure ATP content of cells treated with compounds following manufacturer's instruction. A decrease in the ATP content is a measure of decrease in cellular viability. The EC50 value—the concentration at which an agent reduces cell viability by 50% of the maximum effect—was determined using PRISM™ software, version 5.0 (GraphPad Software, La Jolla, Calif., USA).
(§2) The compounds were tested against ADR, a multi-drug resistant breast cancer cell line as well as the H226, N87, and OVCAR3 cell lines.

The subject of the next data set is H226 cell line. The data set is described as follows: ATP luminescence (CellTiter-Glo) cell viability assay, H226. In kind it is cell-based. The following applies: Homo sapiens, read-out: EC50 (nM) H226. As for the experimental part:
as §1, §2
In general terms: In ATP-based viability assays light output follows the ATP content of the culture.

The test system of a further data set is N87 cell line. Briefly: ATP luminescence (CellTiter-Glo) cell viability assay, N87. In kind it is cell-based. The note with it: 72 h, read-out: EC50 (nM) N87. On the procedure: as §1, §2
The next data set has as its system OVCAR3 cell line. Briefly: ATP luminescence (CellTiter-Glo) cell viability assay, OVCAR3. It counts as cell-based. The following applies: Homo sapiens, read-out: EC50 (nM) OVCAR3. As for the experimental part: as §1, §2
Another data set concerns cancer cells. The note with it: antitumor activity, Nicolaou et al. 2007, 2008; cited from earlier work.
A short description of data set [2]: Chemical stability observed on preparation and storage. In kind it is physicochemical. The note with it: observation on handling and storage; both acid- and base-sensitive, slowly decomposed at −78° C.
[3] abbreviates: ADR multidrug resistant breast cancer cell line, ATP content.
[4] abbreviates: NCI-H226, H226, 72 h, ATP content.
Where [5] appears, read: OVCAR-3, OVCAR3, 72 h, ATP content.

Molecules are shown by their SMILES. Read-outs that look alike come from different tables or passages of the source.

The term EC50 denotes the concentration that produces a half-maximal response. With `COc1cc2c(c(OC)c1CN)C(=O)c1c(O)cc3c(c1C2=O)N[C@H]1C#C/C=C\C#C[C@@H](O)[C@@]32O[C@@]12[C@@H](C)O`, the EC50 is 0.34 nM in data set [1] (setting [3]); 0.077 nM with H226 cell line (setting [4]); 0.15 nM in the data set with N87 cell line (N87, ATP content); 0.4 nM with OVCAR3 cell line (setting [5]).
Broadly, the melting point is the temperature of the solid-liquid transition. As for `C[C@@H](O)[C@@]12O[C@]13c1cc(O)c4c(c1N[C@H]2C#C/C=C\C#C[C@H]3O)C(=O)c1ccccc1C4=O` [Compound 26a, Uncialamycin], the melting point is 175 °C (dec.). Further, the EC50 in data set [1] (setting [3]) turned out to be 0.39 nM. The EC50 in the data set on H226 cell line (setting [4]) was found to be 1.8 nM. The IC50 entry in the data set with cancer cells was “picomolar”. The EC50 in the data set with N87 cell line (N87, ATP content) stood at 1.8 nM. For the same molecule, the EC50 in the data set on OVCAR3 cell line (setting [5]) was 4.7 nM.
`C[C@@H](O)[C@@]12O[C@]13c1cc(O)c4c(c1N[C@H]2C#C/C=C\C#C[C@H]3O)C(=O)c1ccc(N)cc1C4=O` [Compound 36a, 8-Amino-uncialamycin, reference compound]: the EC50 in data set [1] (setting [3]) worked out at 0.67 nM; with H226 cell line (setting [4]), 2.4 nM; with N87 cell line (N87, ATP content), 2.7 nM; with OVCAR3 cell line (setting [5]), 7.4 nM.
As for `C[C@@H](O)[C@@]12O[C@]13c1cc(O)c4c(c1N[C@H]2C#C/C=C\C#C[C@H]3O)C(=O)c1ccc(CN)cc1C4=O` [Compound 48aa, 8-Aminomethyl-uncialamycin], the EC50 in data set [1] (setting [3]) was found to be 0.02 nM; with H226 cell line (setting [4]), 0.028 nM; in the data set on N87 cell line (N87, ATP content), 0.011 nM; in the data set with OVCAR3 cell line (setting [5]), 0.32 nM. The stability entry in data set [2] is listed as “extremely unstable”.
With `C[C@@H](O)[C@@]12O[C@]13c1cc(O)c4c(c1N[C@H]2C#C/C=C\C#C[C@@H]3O)C(=O)c1ccc(CN)cc1C4=O` [Compound 48ab], the EC50 was found to be 0.054 nM in data set [1] (setting [3]); 0.051 nM with H226 cell line (setting [4]); 0.023 nM in the data set with N87 cell line (N87, ATP content); 0.28 nM in the data set on OVCAR3 cell line (setting [5]).
As for `C[C@@H](O)[C@@]12O[C@]13c1cc(O)c4c(c1N[C@H]2C#C/C=C\C#C[C@H]3O)C(=O)c1cc(CN)ccc1C4=O` [Compound 48ba, 7-Aminomethyl-uncialamycin], the EC50 in data set [1] (setting [3]) is 0.029 nM; with H226 cell line (setting [4]) it was 0.012 nM; in the data set on N87 cell line (N87, ATP content), 0.01 nM; in the data set on OVCAR3 cell line (setting [5]), 0.066 nM. The stability result in data set [2] is on record as “extremely unstable”.
For the molecule `C[C@@H](O)[C@@]12O[C@]13c1cc(O)c4c(c1N[C@H]2C#C/C=C\C#C[C@H]3O)C(=O)c1c(CN)cccc1C4=O` [Compound 48ca, 6-Aminomethyl-uncialamycin], the stability result in data set [2] was “extremely unstable”.
On to `C[C@@H](O)[C@@]12O[C@]13c1cc(O)c4c(c1N[C@H]2C#C/C=C\C#C[C@H]3O)C(=O)c1cccc(CN)c1C4=O` [Compound 48da, 9-Aminomethyl-uncialamycin], for which the stability result in data set [2] is on record as “extremely unstable”.
Turning to `C[C@@H](O)[C@@]12O[C@]13c1cc(O)c4c(c1N[C@H]2C#C/C=C\C#C[C@H]3O)C(=O)c1cc2c(cc1C4=O)CNC2` [Compound 97, Isoindoline-uncialamycin 97], the stability entry in data set [2] was “extremely unstable”.
With `CNCc1ccc2c(c1)C(=O)c1c(O)cc3c(c1C2=O)N[C@H]1C#C/C=C\C#C[C@@H](O)[C@@]32O[C@@]12[C@@H](C)O` [Compound 108, N-methyl-8-aminomethyl-uncialamycin 108], in data set [2], the stability entry was “extremely unstable”.
On the same count and under the same terms, the entry for `C=CCOC(=O)N1c2c(cc(O)c3c2C(=O)c2ccc(CN)cc2C3=O)[C@@]23O[C@@]2([C@@H](C)O[Si](CC)(CC)CC)[C@@H]1C#C/C=C\C#C[C@H]3O` [Compound 111] is “much more stable than 48aa”.
As to `CC(C)[C@H](NC(=O)CCCCCN1C(=O)C=CC1=O)C(=O)N[C@@H](CCCNC(N)=O)C(=O)Nc1ccc(COC(=O)NCc2ccc3c(c2)C(=O)c2c(O)cc4c(c2C3=O)N[C@H]2C#C/C=C\C#C[C@@H](O)[C@@]43O[C@@]23[C@@H](C)O)cc1` [Compound 116], the EC50 in data set [1] came to 3.3 nM; with H226 cell line (NCI-H226, 72 h), 4.2 nM; with N87 cell line, 8.7 nM; in the data set with OVCAR3 cell line (OVCAR-3, 72 h), 16 nM.
